Test results reported in patent US9034308B2, “Anti-sensitivity, anti-caries, anti-staining, anti-plaque ultra-mild oral hygiene agent” (RHODIA OPERATIONS, priority 2003, dated 2015).

Experiments:
[1] = Interaction with calcium phosphates (foaming); assay type: physicochemical; conditions: 1 Kg powder added to 1800 ml of 10% solution, pH ~7
Protocol: Disappearance of foaming was indicative of loss of surfactant from bulk solution. Increased hydrophobicity of the calcium phosphate was indicative of surfactant adsorption onto the solid particles.
A typical calcium based abrasive tooth paste formulation was prepared using dibasic calcium phosphate, dihydrate as the abrasive and conventional mixing techniques as shown below. […] This finding was in contrast to an earlier patent discussed above (U.S. Pat. No. 4,152,421) and was presumably so because of the strong interaction of the potassium dodecyl phosphate (1.2%) with the calcium phosphate abrasive.

[2] = 1% solution, in vitro; cited from earlier work
[3] = 14C labeling, in the presence of saliva; cited from earlier work

Molecule | amount bonded to 40 mg HA [3] [mg] | other results
CCCCCCCCCCCCOP(=O)([O-])[O-].[K+].[K+] [potassium dodecyl phosphate] | – | foaming of the solution after addition of dibasic calcium phosphate, dihydrate [1]: significantly reduced
dioctyl phosphate | – | rate of calcium demineralization on treated teeth [2]: lower rate of calcium demineralization
dodecyl-3 EO monoalkyl phosphate | 0.20 to 0.35 | –
hexadecyl-8 EO ethoxylate | < 0.05 | –
